The test system of data set [1] is organ slice of cat cerebral cortex. Briefly: Inhibition test on cerebral edema using organ slice of cat cerebral cortex (NaHCO3-stimulated swelling). The format is cell-based. As to conditions: Felis catus, 50 min, cat cerebral cortex slices, 50 minutes at 37° C., pH 7.4, swelling stimulated with NaHCO3; for IC50: read-out: inhibitory activity of cerebral edema (IC50); for inhibition at 0.01 µM: 10^-8 M, read-out: a percentage of inhibition of swelling at 10^-8 M (%). The protocol:
THE INHIBITION TEST ON CEREBRAL EDEMA USING ORGAN SLICE OF CAT CEREBRAL CORTEX
The test was carried out by the method described in Journal of Medicinal Chemistry, Vol. 25 (No. 5), 567 (1982).
That is, brain was isolated from a cat weighing 2~4 kg, slices of about 1 mm in thickness was prepared, the white matter substance was removed, and the gray matter substance (100~150 mg a test) was used for a sample. The sample was added to the following incubation medium and incuvated for 50 minutes at 37° C. After the incubation, the sample was immediately weighed again to determine the swelling weight of the sample.
(osmotic pressure, 280~290 mOsm/l)
1. Hepes Buffer (pH 7.4). . . 2.365 ml
adjusted to pH 7.4 by NaOH
2. test compounds [dissolved in the presence of tris(hydroxymethyl) aminomethane] or water. . . 0.01 ml
3. 0.2M NaHCO3 (dissolved by Hepes Buffer, giving the final concentration of 10 mM in medium) or Hepes Buffer. . . 0.125 ml
The test was carried out by using NaHCO3 as a stimulating agent of swelling.
(A) A percentage of swelling when a slice sample was added to incubation medium comprising Hepes Buffer, water and NaHCO3 (defined as maximum of swelling).
(B) A percentage of swelling when a slice sample was added to incubation medium comprising Hepes Buffer and water (defined as maximum inhibition of swelling).
(C) A percentage of swelling when a slice sample was added to incubation medium comprising Hepes Buffer, the test compounds in various concentrations and NaHCO3.
Above-mentioned (A), (B) and (C) were determined. Inhibition percentage of the test compounds was caliculated by the following equation: [formula] IC50 value was determined by dose-response curve as a concentration in which inhibition percentage was 50.
The results are shown Table I. And further, percentages of swelling of (C) was counted, in the case that concentration of test compound of (C) was 10^-8 M, and inhibition of swelling at the concentration of 10^-8 M was determined by percentages of swelling of both (A) and (B).

The subject of data set [2] is mice. The data set can be described thus: Acute toxicity test in mice by intravenous administration. Type of data set: in vivo. As to conditions: dead/treated. The protocol: For example, in the acute toxicity test in mice by intravenous administration, the mortality of compound of example 1 and 1-3 are 0/6 and 0/6 at the dose of 100 mg/kg and are 6/6 and 4/6 at the dose of 200 mg/kg, respectively.

Broadly, the IC50 is the concentration that gives 50% inhibition. For the compound `O=C(c1ccccc1)c1ccc(O[C@H]2CC[C@H](C(=O)O)C2)c(Cl)c1Cl` [Example 1, (1S,3S)-3-[(2,3-dichloro-4-benzoyl)phenoxy]cyclopentanecarboxylic acid], the IC50 in data set [1] was 5.5 nM. Also, the mortality in data set [2] (100 mg/kg) is listed as 0/6; in data set [2] (200 mg/kg) it was 6/6.
With `O=C(c1cccs1)c1ccc(O[C@H]2CC[C@H](C(=O)O)C2)c(Cl)c1Cl` [Example 1-3, (1S,3S)-3-[{2,3-dichloro-4-(2-thenoyl)}phenoxy]cyclopentanecarboxylic acid], the IC50 in data set [1] was 2.2 nM. Further, the values for the mortality in data set [2] (100 mg/kg) and in data set [2] (200 mg/kg) were 0/6 and 4/6, respectively.
The term inhibition denotes the percentage by which the read-out fell short of the control. With `O=C(c1ccccc1F)c1ccc(O[C@H]2CC[C@H](C(=O)O)C2)c(Cl)c1Cl` [Example 1-8, (1S,3S)-3-[{2,3-dichloro-4-(2-fluorobenzoyl)}phenoxy]cyclopentanecarboxylicacid], in data set [1], the inhibition at 0.01 µM is 82% and the half-inhibitory concentration (IC50) was found to be 2.6 nM.
As for `O=C(c1cccc([N+](=O)[O-])c1)c1ccc(O[C@H]2CC[C@H](C(=O)O)C2)c(Cl)c1Cl` [Example 1-12, (1S,3S)-3-[{2,3-dichloro-4-(3-nitrobenzoyl)}phenoxy]cyclopentanecarboxylic acid], in data set [1], the inhibition at 0.01 µM is 52%.
The same measure, in the same setting: the figure for `O=C(Cc1ccccc1)c1ccc(O[C@H]2CC[C@H](C(=O)O)C2)c(Cl)c1Cl` [Example 1-13, (1S,3S)-3-[(2,3-dichloro-4-phenylacetyl)phenoxy]cyclopentanecarboxylic acid] is 36%.
Regarding `O=C(c1ccc(O[C@H]2CC[C@H](C(=O)O)C2)c(Cl)c1Cl)c1cccc2ccccc12` [Example 1-19, (1S,3S)-3-[{2,3-dichloro-4-(1-naphthoyl)}phenoxy]cyclopentanecarboxylic acid], in data set [1], the inhibition at 0.01 µM turned out to be 90% and the IC50 was determined as 4.1 nM.
As to `Cc1cccc(C(=O)c2ccc(O[C@H]3CC[C@H](C(=O)O)C3)c(Cl)c2Cl)c1` [Example 1-20, (1S,3S)-3-[{2,3-dichloro-4-(3-methylbenzoyl)}phenoxy]cyclopentanecarboxylicacid], in data set [1], the inhibition at 0.01 µM amounted to 78%.
On to `O=C(c1ccccc1)c1ccc(O[C@H]2CC[C@H](C(=O)O)C2)cc1Cl` [Example 1-25, (1S,3S)-3-[(3-chloro-4-benzoyl)phenoxy]cyclopentanecarboxylic acid], for which, in data set [1], the inhibition at 0.01 µM turned out to be 100% and the IC50 was determined as 3 nM.
On to `O=C(c1ccccc1)c1ccc(O[C@H]2CC[C@H](C(=O)O)C2)c2ccccc12` [Example 4, (1S,3S)-3-(4-benzoyl-1-naphthoxy)cyclopentanecarboxylic acid], for which the inhibition at 0.01 µM in data set [1] was determined as 41%.

The record behind these values is patent US4916147A, “3-[(4-Aroyl) phenoxy (or phenylthio)]-cyclopentanecarboxylic acid analogues and treatment of cerebral edema therewith” (Ono Pharmaceutical Co., Ltd., priority 1985, dated 1990).
